Measured values: patent US5298508A, “Irreversible inhibitors of adenosine receptors” (priority 1992, dated 1994)
Like-named read-outs stand apart in the source and are kept apart here.

Assays:
[1] = tested on: A1-adenosine receptors; experiment: covalent labeling of solubilized central A1 receptor preparation, SDS electrophoresis; format: binding; settings: tritiated 4b, SDS gel, with or without high concentration of R-PIA
From the text: An SDS electrophoresis gel separated proteins from a solubilized central A1 receptor preparation, pretreated with compound 4b (lane 1).

[2] = chemical reactivity towards primary amines (thin layer chromatography); format: physicochemical; settings: ethylene diamine in molar excess, TLC
[3] = molecular target: T1, A1 adenosine receptors (Rattus norvegicus, UniProt P25099); experiment: inhibition of binding of [3H]N6-phenylisopropyladenosine ([3H]PIA) to A1 adenosine receptors in rat cerebral cortex membranes; settings: Table I, rat, against [3H]PIA; read-out: Ki at central A1 receptors, rat
T1 construct: A1 adenosine receptors in rat cerebral cortex membranes; from tissue; host or cells: rat cerebral cortex membranes
T1 sequence (P25099 1-326): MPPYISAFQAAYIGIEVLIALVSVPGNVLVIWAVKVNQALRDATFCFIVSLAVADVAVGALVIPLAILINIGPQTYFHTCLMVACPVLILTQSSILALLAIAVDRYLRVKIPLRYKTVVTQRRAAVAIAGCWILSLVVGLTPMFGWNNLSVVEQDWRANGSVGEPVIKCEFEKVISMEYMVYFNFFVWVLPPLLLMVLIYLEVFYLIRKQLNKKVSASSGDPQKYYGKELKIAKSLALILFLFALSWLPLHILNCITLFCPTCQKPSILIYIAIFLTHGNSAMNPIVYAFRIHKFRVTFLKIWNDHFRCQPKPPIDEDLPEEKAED
Procedure: Ukena et al., FEBS Letters 209;122, 1986.
For the biochemical assays, stock solutions of xanthines in the millimolar concentration range in dimethylsulfoxide were prepared and stored frozen. The solutions were warmed to 50° C. prior to dilution in aqueous medium. […] Acad. Sci. USA, 83:4089, 1986. Inhibition of binding by a range of concentrations of a xanthine or adenosine derivative was assessed in triplicate in at least three separate experiments.

[4] = tested on: A1-adenosine receptors; experiment: irreversible inhibition of [3H]XAC binding sites after one hour incubation and washout, bovine brain membranes; design: species or system bovine (calf)
[5] = molecular target: T2, central A1 receptors (Rattus norvegicus, UniProt P25099); format: binding
T2 construct: A1 -adenosine receptors in rat brain membranes; from tissue; host or cells: rat brain membranes
T2 sequence (P25099 1-326): T1 sequence (P25099 1-326)

[6] = stability to storage; format: physicochemical; settings: result in words
Procedure: A modification of the procedure of Newman et al., J. Med. Chem. 30: 1901, 1987, was used. In this procedure, 1,3-phenylenediamine, 0.211 grams, 1.95 mmol, was dissolved in 80 ml chloroform. Thirty ml water and 0.38 gram, 4.5 mmol, sodium bicarbonate was added, and the mixture was stirred vigorously. After ten minutes, 0.4 ml, 5.2 mmol of freshly distilled thiophosgene was added. After one hour, the phases were separated, and the organic layer was dried over sodium sulfate and evaporated. The residue was triturated with ether:petroleum ether, 1:1, and filtered. The filtrate was evaporated, leaving the product as a white solid (0.30 g, 81% yield), melting at 50.5°-51° C.

[7] = molecular target: T3, rat brain membranes (Rattus norvegicus, UniProt P25099); experiment: inhibition of [3H]XAC binding to rat brain membranes (blocking experiments)
T3 construct: A1 -adenosine receptors in rat brain membranes; from tissue; host or cells: rat brain membranes
T3 sequence (P25099 1-326): T1 sequence (P25099 1-326)

[8] = molecular target: T4, central A1 receptors (Bos taurus, UniProt P28190); experiment: inhibition of radioligand binding at central A1 receptors, calf brain membranes
T4 construct: A1 -adenosine receptors in membranes form calf brain; from tissue; host or cells: calf brain membranes
T4 sequence (P28190 1-326): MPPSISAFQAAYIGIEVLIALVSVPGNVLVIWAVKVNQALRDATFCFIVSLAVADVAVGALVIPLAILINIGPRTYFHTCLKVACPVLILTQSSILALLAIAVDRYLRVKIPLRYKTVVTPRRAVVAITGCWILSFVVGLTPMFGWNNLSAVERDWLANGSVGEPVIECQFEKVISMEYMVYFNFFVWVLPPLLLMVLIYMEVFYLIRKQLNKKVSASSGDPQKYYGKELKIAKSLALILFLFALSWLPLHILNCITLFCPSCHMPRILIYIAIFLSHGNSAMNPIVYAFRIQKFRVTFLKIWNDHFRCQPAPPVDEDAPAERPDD
From the text: ^b against [^125 I]APNEA (i.e. N^6
^b against [^125 I]APNEA;
The compounds, at concentrations relative to the Ki -values obtained, were screened for the ability to inhibit competitive binding of the radioligands [^3 H]PIA to rat brain membranes and [^3 H]XAC to bovine brain membranes, a shown in Table 1.

## C[C@H](Cc1ccccc1)Nc1ncnc2c1ncn2[C@@H]1O[C@H](CO)[C@@H](O)[C@H]1O [R-PIA, reference compound]
[1]
  covalent labeling of A1-adenosine receptor: blocks the irreversible ligand

## CCCn1c(=O)c2nc(-c3ccc(OCC(=O)NCCN=C(S)Nc4ccc(N=C=S)cc4)cc3)[nH]c2n(CCC)c1=O [Compound 4b]
[2]
  reactivity towards primary amines: quantitatively reactive towards primary amines
[3]
  Ki: 6.6 ± 1.31 nM
[4]; 500 nM, one hour incubation, bovine brain membranes, [3H]XAC binding
  adenosine receptor binding sites irreversibly inhibited: 90%
[4]; calf/bovine brain, result in words
  irreversible inhibition of A1-adenosine receptors, calf brain membranes: irreversibly inhibits A1 -adenosine receptors in membranes form calf brain and from rat brain in a dose-dependent manner
[5]; 1 h, read-out: remaining receptor binding sites after treatment (of initial density)
  remaining activity at 0.1 µM: 34%
[5]; rat brain, result in words
  irreversible inhibition of A1-adenosine receptors, rat brain membranes: irreversibly inhibits A1 -adenosine receptors in membranes form calf brain and from rat brain in a dose-dependent manner
[5]; read-out: % inhib (conc)
  inhibition at 0.1 µM: 63%
[5]; result in words
  irreversible inhibition of central A1-adenosine receptors: behave pharmacologically as irreversible inhibitors of central A1 -adenosine receptors
[6]
  stability to storage: stable to storage at -20 °C
[1]
  covalent labeling of A1-adenosine receptor: Specific labeling of the receptor (MW approximately 40,000)
[7]
  Ki: 22 nM
[8]
  Ki: 1 nM

## CCCn1c(=O)c2[nH]c(-c3ccc(OCC(=O)NCCNC(=S)Nc4ccc(NC(=S)NCCN)cc4)cc3)nc2n(CCC)c1=O [ethylene diamine adduct]
[7]; rat brain membranes, [3H]XAC
  Ki: 18 nM

## S=C=Nc1cccc(N=C=S)c1 [Compound 5a, 1,3-phenyldiisothiocyanate]
[6]
  stability to storage: stable to storage at room temperature for at least several weeks

## CCCn1c(=O)c2[nH]c(-c3ccc(OCC(=O)NCC=O)cc3)nc2n(CCC)c1=O [Compound 2b]
[3]
  Ki: 266 ± 40 nM
[5]; 500 nM, one hour incubation and washout, rat brain membranes, against [125I]APNEA
  % inhib (conc): 0%
[8]; Table I, calf, against [125I]APNEA, read-out: Ki at central A1 receptors, calf
  Ki: 1.5 ± 0.1 nM
